{"source": "patent US8834942B2", "about": "“Enhanced absorption of oregano derived oils” (priority 2010, dated 2014)", "origin": "cited, not measured here", "settings": "single emulsifier", "data": [{"substance": "polyoxyethylene sorbitan monooleate", "values": [{"measurement": "HLB value", "result": "about 15"}]}]}
